In patent publication US20240057591A1, “ANTIMICROBIAL WET WIPES” (Kimberly-Clark Worldwide, Inc., priority 2021, published 2024):
Marks after values point to notes of the source that are not given here.

Legend:
[1] = system: Burkholderia cepacia (ATCC 25416); experiment: Reduction of bacterial load by adding CO2 in a pressurized vessel (whipped cream dispenser), plate count after 72 hr; type: cell-based; settings: for Recovered Bacteria, Average CFU/mL, With CO2: 72 hr, 25° C., n = 3
Procedure: Burkholderia cepacia (ATCC 25416) was grown overnight in 40 mL trypticase soy broth in 250 mL bottle shaken at 100 RPM at 30° C. […] 100 mL of either solution were placed in a whipped cream dispenser (670 mL total volume container), and then different amounts of carbon dioxide (CO2) were injected into the container.
100 mL of each solution were then placed in a 150 mL sterile plastic bottle (untreated control). Both samples were placed on a wrist action shaker for 2 hr at 100 rpm at room temperature (25° C.), and then placed on an orbital shaker for 70 hr at 100 rpm at room temperature (25° C.). The total time each sample was at room temperature (25° C.) was 72 hr. After 72 hr, each sample was plated on trypticase soy agar to enumerate bacterial growth after contact period.

[2] = system: Escherichia coli ATCC 8739; experiment: Reduction of microorganism load by continuous addition of CO2, plate count after contact time; type: cell-based; settings: 300 psi CO2 continuously, reverse osmosis water, n = 2
Procedure: (§1) Each microbe was grown in specified growth conditions (Table 7) using 40 mL of broth media in a sterile 250 mL bottle shaken at 100 RPM. Each microbe was subcultured from broth culture to an agar plate and incubated in specified growth conditions (Table 7). 100 μL of bacterial or fungal suspension matching the turbidity of a 0.5 or 1 MacFarland Standard were added to 100 mL of filter-sterilized reverse osmosis water (final concentration approximately 1×10^6 or 5×10^1 CFU/mL). 20 mL of reverse osmosis water solution with bacteria was dispensed to a 25 mL hydrothermal synthesis autoclave reactor vessel (25 mL total volume vessel) attached to a continuous CO2 delivery system. The vessels were left connected to the CO2 delivery system at specific contact times at room temperature (25-27° C.). 20 mL of reverse osmosis water with bacteria and filter sterilized reverse osmosis water (no bacteria) were placed in a 150 mL sterile plastic bottle (untreated controls). The untreated controls were left for the same contact time at room temperature (25-27° C.) as CO2 treated vessels. Each microorganism was plated on specified agar media (Table 7) to enumerate bacteria after contact period. Tables 8-10 show the bacterial load reduction achieved after continuous addition of pressurized gas comprising CO2 to contaminated reverse osmosis water or a contaminated solution of reverse osmosis water and Triton X-100.

[3] = system: Pseudomonas aeruginosa ATCC 9027; experiment: as above; type: cell-based; settings: 300 psi CO2 continuously, reverse osmosis water, n = 2
Procedure: as §1

[4] = system: Candida albicans ATCC 10231; experiment: as above; type: cell-based; settings: 300 psi CO2 continuously, reverse osmosis water, n = 2
Procedure: as §1

[5] = system: Staphylococcus aureus ATCC 6538; experiment: as above; type: cell-based; settings: 300 psi CO2 continuously, reverse osmosis water, n = 2
Procedure: as §1

[6] = system: Burkholderia cepacia ATCC 25416; experiment: Reduction of bacterial load by continuous addition of CO2, plate count after contact time; type: cell-based; settings: n = 2
Procedure: as §1, with “100 μL of bacterial or fungal suspension matching the turbidity of a 0.5 or 1 MacFarland Standard were added to 100 mL of filter-sterilized reverse osmosis water (final concentration approximately 1×10^6 or 5×10^1 CFU/mL).” left out

[7] = pH measurements of preservative free wet wipe formulation after addition of CO2 and exposure to 1 atm (FIG. 5); type: physicochemical
Procedure: FIG. 5 is an exemplary embodiment depicting a graph of pH measurements of 100 mL of preservative free wet wipe formulation after addition of 8.2 g of CO2, and subsequent exposure to 1 atm (20° C.) in accordance with the present disclosure.

## O=C=O [CO2, carbon dioxide]
[1]; 8.2 g of CO2 to 100 mL preservative-free wet wipe formulation, approximately 1 × 10^6 CFU/mL
  Recovered Bacteria, Average CFU/mL, With CO2: <10 CFU/mL
[1]; 8.2 g of CO2 to 100 mL reverse osmosis water, approximately 1 × 10^6 CFU/mL
  Recovered Bacteria, Average CFU/mL, With CO2: 1.1 × 10^3 CFU/mL
[1]; 8.2 g of CO2 to 100 mL reverse osmosis water, approximately 5 × 10^1 CFU/mL
  Recovered Bacteria, Average CFU/mL, With CO2: <10 CFU/mL
[1]; 16.0 g of CO2 to 100 mL reverse osmosis water, approximately 1 × 10^5 CFU/mL
  Recovered Bacteria, Average CFU/mL, With CO2: <10 CFU/mL
[1]; 23.7 g of CO2 to 100 mL reverse osmosis water, approximately 1 × 10^5 CFU/mL
  Recovered Bacteria, Average CFU/mL, With CO2: <10 CFU/mL
[1]; pressurized gas comprising carbon dioxide added to contaminated preservative-free wet wipe formulation
  Microbial growth compared to no added CO2: greatly reduced microbial growth
[1]; pressurized gas comprising carbon dioxide added to contaminated water
  Microbial growth compared to no added CO2: greatly reduced microbial growth
[2]; 2 Hours
  Average Recovered CFU/mL, With CO2: 1.0 × 10^3 CFU/mL
[2]; 4 Hours
  Average Recovered CFU/mL, With CO2: 2.5 × 10^2 CFU/mL
[2]; 6 Hours
  Average Recovered CFU/mL, With CO2: <10 CFU/mL
[3]; 2 Hours
  Average Recovered CFU/mL, With CO2: 3.5 × 10^2 CFU/mL
[3]; 4 Hours
  Average Recovered CFU/mL, With CO2: <10 CFU/mL
[3]; 6 Hours
  Average Recovered CFU/mL, With CO2: <10 CFU/mL
[4]; 2 Hours
  Average Recovered CFU/mL, With CO2: 5.3 × 10^2 CFU/mL
[4]; 4 Hours
  Average Recovered CFU/mL, With CO2: 1.0 × 10^2 CFU/mL
[4]; 6 Hours
  Average Recovered CFU/mL, With CO2: <10 CFU/mL
[5]; 2 Hours
  Average Recovered CFU/mL, With CO2: 6.0 × 10^2 CFU/mL
[5]; 4 Hours
  Average Recovered CFU/mL, With CO2: 1.3 × 10^2 CFU/mL
[5]; 6 Hours
  Average Recovered CFU/mL, With CO2: <10 CFU/mL
[6]; 100 psi CO2 continuously, reverse osmosis water and 0.2% (v/v) Triton X-100, approximately 1.0 × 10^4 inoculum, 15 minutes
  Average Recovered CFU/mL, With CO2: 2.1 × 10^3 CFU/mL
[6]; 100 psi CO2 continuously, reverse osmosis water and 0.2% (v/v) Triton X-100, approximately 1.0 × 10^4 inoculum, 30 minutes
  Average Recovered CFU/mL, With CO2: 1.2 × 10^3 CFU/mL
[6]; 100 psi CO2 continuously, reverse osmosis water and 0.2% (v/v) Triton X-100, approximately 1.0 × 10^4 inoculum, 60 minutes
  Average Recovered CFU/mL, With CO2: 6.3 × 10^2 CFU/mL
[6]; 300 psi CO2 continuously, 20 mL reverse osmosis water, 0.5 hours
  Average Recovered CFU/mL (Standard Deviation), With CO2: 5.0 × 10^5 (1.0 × 10^5) CFU/mL
[6]; 300 psi CO2 continuously, 20 mL reverse osmosis water, 1 hour
  Average Recovered CFU/mL (Standard Deviation), With CO2: 4.5 × 10^5 (2.5 × 10^5) CFU/mL
[6]; 300 psi CO2 continuously, 20 mL reverse osmosis water, 1.5 hours
  Average Recovered CFU/mL (Standard Deviation), With CO2: 5.0 × 10^5 (2.0 × 10^5) CFU/mL
[6]; 300 psi CO2 continuously, 20 mL reverse osmosis water, 2 hours
  Average Recovered CFU/mL (Standard Deviation), With CO2: 3.1 × 10^4 (7.0 × 10^3) CFU/mL
[6]; 300 psi CO2 continuously, 20 mL reverse osmosis water, 2.5 hours
  Average Recovered CFU/mL (Standard Deviation), With CO2: 8.0 × 10^3 (2.0 × 10^3) CFU/mL
[6]; 300 psi CO2 continuously, 20 mL reverse osmosis water, 3 hours
  Average Recovered CFU/mL (Standard Deviation), With CO2: <1 (n/a) CFU/mL
[6]; 300 psi CO2 continuously, 20 mL reverse osmosis water, 6 hours
  Average Recovered CFU/mL (Standard Deviation), With CO2: <1 (n/a) CFU/mL
[6]; 300 psi CO2 continuously, 20 mL reverse osmosis water, 24 hours
  Average Recovered CFU/mL (Standard Deviation), With CO2: <1 (n/a) CFU/mL
[6]; Table 9: 100 psi CO2 (approx. 0.231 mol/L), reverse osmosis water, 2 hours
  Average Recovered CFU/mL (Standard Deviation), With CO2: 2.3 × 10^4 (1.0 × CFU/mL
[6]; Table 9: 100 psi CO2 (approx. 0.231 mol/L), reverse osmosis water, 4 hours
  Average Recovered CFU/mL (Standard Deviation), With CO2: 1.2 × 10^4 (4.0 × CFU/mL
[6]; Table 9: 100 psi CO2 (approx. 0.231 mol/L), reverse osmosis water, 6 hours
  Average Recovered CFU/mL (Standard Deviation), With CO2: 1.2 × 10^4 (3.5 × CFU/mL
[6]; Table 9: 200 psi CO2 (approx. 0.463 mol/L), reverse osmosis water, 2 hours
  Average Recovered CFU/mL (Standard Deviation), With CO2: 1.2 × 10^3 (1.5 × CFU/mL
[6]; Table 9: 200 psi CO2 (approx. 0.463 mol/L), reverse osmosis water, 4 hours
  Average Recovered CFU/mL (Standard Deviation), With CO2: 1.0 × 10^2 (1.0 × CFU/mL
[6]; Table 9: 200 psi CO2 (approx. 0.463 mol/L), reverse osmosis water, 6 hours
  Average Recovered CFU/mL (Standard Deviation), With CO2: 1.4 × 10^1 (<10) CFU/mL
[6]; Table 9: 300 psi CO2 (approx. 0.694 mol/L), reverse osmosis water, 2 hours
  Average Recovered CFU/mL (Standard Deviation), With CO2: 9.0 × 10^2 (1.0 × CFU/mL
[6]; Table 9: 300 psi CO2 (approx. 0.694 mol/L), reverse osmosis water, 4 hours
  Average Recovered CFU/mL (Standard Deviation), With CO2: 5.0 × 10^1 (5.0 × CFU/mL
[6]; Table 9: 300 psi CO2 (approx. 0.694 mol/L), reverse osmosis water, 6 hours
  Average Recovered CFU/mL (Standard Deviation), With CO2: <10 (n/a) CFU/mL
[6]; Table 10: 300 psi CO2 continuously, reverse osmosis water, 2 Hours
  Average Recovered CFU/mL, With CO2: 1.3 × 10^3 CFU/mL
[6]; Table 10: 300 psi CO2 continuously, reverse osmosis water, 4 Hours
  Average Recovered CFU/mL, With CO2: 2.5 × 10^1 CFU/mL
[6]; Table 10: 300 psi CO2 continuously, reverse osmosis water, 6 Hours
  Average Recovered CFU/mL, With CO2: <10 CFU/mL
[7]; 100 mL preservative free wet wipe formulation after addition of 8.2 g of CO2 (FIG. 5)
  Reduction of pH of wet wipe formulation: approximately 0.20 pH units
[7]; after exposure to atmospheric conditions (1 atm, 20° C.; FIG. 5)
  Dissipation of solubilized CO2 from wet wipe formulation: quickly dissipated
